Data on eight compounds can be found in patent US20210087238A1, “CELL PENETRATING PEPTIDES AND RELATED COMPOSITIONS AND METHODS” (Phylogica Limited, priority 2017, published 2021).

Data set [1] concerns CHO-K1 cells. The note with it: up to 50 μM; for cytotoxicity of peptides alone, cell viability: 24 h and 48 h incubation. The method, then: Cell viability effect on CHO-K1 cells of Phylomer™ CPPs and variants compared to the canonical CPPs TAT and Penetratin following 24 h (A) and 48 h (B) incubation with peptides. Cell viability was assessed by resazurin reduction potential. Membrane integrity of CHO-K1 cells were assessed by LDH release following 2 h (C) and 24 h (D) incubation with peptides. […] Results are representative of 3 independent experiments. Error bars represent standard deviation from the mean of triplicate samples.
Cells in were seeded at 2000-6000 cells/well, depending on cell line, in 96-well plates (PAP assays: CHO-K1, 3000 cells/well; peptide cytotoxicity assays: CHO-K1, 5000 cells/well; Bouganin assay: CHO-K1 and CHO-K1 EGFR, 2500 cells/well; ^DPMIα assays: T47D, 5000 cells/well; Omomyc assays: all cell lines, 5000 cells/well). In brief, adherent cells were allowed to attach for 24 h prior to addition of treatments whereas suspension cell lines were treated immediately following seeding. Following 2-48 h incubations with treatments, cell viability was measure by a variety of methods. Membrane integrity was assessed by the release of LDH into the media via the CytoTox-ONE reagent (Promega). Metabolic activity was measured either by resazurin reduction potential using PrestoBlue (LifeTech) or ATP activity using CellTitre-Glo (Promega). All assays followed manufacturer's instructions. IC50 values were calculated using Prism (version 7.0a, GraphPad).
When delivering therapeutics into a cell, it is critical that the delivery molecule itself is not cytotoxic. To assess innate cytotoxicity we tested the effects of FPPs alone on cell viability at 24 h (FIG. 6A) and 48 h (FIG. 6B) after addition of peptides. The effects of FPPs on membrane stability of cells was also assessed in a LDH enzymatic assay, measuring release of LDH from cells into surrounding media at 2 h (FIG. 6C) and 24 h (FIG. 6D) after treatment with peptides.

In data set [2] the test system is CHO-K1 cells. Description: PAP cell viability assay: SpyC_PAP conjugated to CPP_SpyT, resazurin reduction. Format: cell-based. The procedure: With the exception of SpyC PAS proteins, conjugations were set up at a SpyCatcher:SpyTag ratio of 1:1.25, with a 40 μM final concentration for the SpyCatcher moiety. SpyC proteins and SpyTag peptides were incubated for 2 h at 22° C. with gentle mixing, and then left at 4° C. overnight. Conjugation efficiencies were analyzed on 4-16% SDS-PAGE gels stained with Gel Code Blue Reagent (Thermo Fisher Scientific). SpyC_PAS proteins were conjugated with SpyTag peptides at ratio 1:1.1, mixed and incubated at room temperature for 30 mins before being stored overnight at 4° C.
All assays followed manufacturer's instructions.
SpyC-PAP/CPP-SpyT complex IC50s were ranked according to potency to determine impact of changes to primary CPP sequence. Sequence variations positively impacting on potency are retained for further optimization, whereas sequence variations deleterious to potency are excluded, thus establishing sequence activity relationships for the CPP peptide. SpyC_BLA/CPP-SpyT complex median cell fluorescence at 4 μM concentration was ranked according to intensity to determine impact of changes to primary CPP sequence. Sequence variations positively impacting on intensity were retained for further optimization, whereas sequence variations deleterious to intensity were excluded, thus establishing sequence activity relationships for the CPP peptide.
For the first readout of functional activity we chose the proapoptotic peptide PAP (SEQ ID NO:61; Ellerby et al 1999, Nat Med, 5, 1032-1038) as a functional cargo and expressed it recombinantly, fused to SpyCatcher (SEQ ID NO:83) (abbreviated as “SpyC_PAP” or “SpyC-PAP”; SEQ ID NO:62) to enable subsequent conjugation with synthetic CPP-SpyTag fusion proteins. Mammalian cells were incubated with SpyC_PAP-CPP protein conjugates, which induce apoptosis if successfully delivered into cells. […] As a representative member of the largest cluster of sequences from the screen, FPP1 was selected for additional optimization studies.

Where [3] appears, read: PAP assay, variant_SpyT/SpyC_PAP.

In the case of `CC[C@H](C)[C@H](NC(=O)[C@H](CCCCN)NC(=O)[C@@H](NC(=O)[C@H](CCC(N)=O)NC(=O)[C@@H](N)CCCNC(=N)N)[C@@H](C)CC)C(=O)N[C@@H](Cc1c[nH]c2ccccc12)C(=O)N[C@@H](Cc1ccccc1)C(=O)N[C@@H](CCC(N)=O)C(=O)N[C@@H](CC(N)=O)C(=O)N[C@@H](CCCNC(=N)N)C(=O)N[C@@H](CCCNC(=N)N)C(=O)N[C@@H](CCSC)C(=O)N[C@@H](CCCCN)C(=O)N[C@@H](Cc1c[nH]c2ccccc12)C(=O)N[C@@H](CCCCN)C(=O)N[C@@H](CCCCN)C(=O)NCC(=O)N[C@@H](C)C(=O)N[C@@H](CO)C(=O)N[C@@H](C)C(=O)N[C@@H](Cc1c[nH]cn1)C(=O)N[C@H](C(=O)N[C@H](C(=O)N[C@@H](CCSC)C(=O)N[C@H](C(=O)N[C@@H](CC(=O)O)C(=O)N[C@@H](C)C(=O)N[C@@H](Cc1ccc(O)cc1)C(=O)N[C@@H](CCCCN)C(=O)N1CCC[C@H]1C(=O)N[C@H](C(=O)N[C@@H](CCCCN)C(=O)NCC(=O)O)[C@@H](C)O)C(C)C)C(C)C)[C@@H](C)CC` [Penetratin CPP-SpyTag fusion], the “cytotoxicity of peptides alone, cell viability” value in data set [1] was “some inconsistent cytotoxicity at the highest concentrations”.
Take `CC[C@H](C)[C@H](NC(=O)[C@H](Cc1c[nH]cn1)NC(=O)[C@H](C)NC(=O)[C@H](CO)NC(=O)[C@H](C)NC(=O)CNC(=O)[C@H](CCCNC(=N)N)NC(=O)[C@H](CCCNC(=N)N)NC(=O)[C@H](CCCNC(=N)N)NC(=O)[C@H](CCC(N)=O)NC(=O)[C@H](CCCNC(=N)N)NC(=O)[C@H](CCCNC(=N)N)NC(=O)[C@H](CCCCN)NC(=O)[C@H](CCCCN)NC(=O)[C@H](CCCNC(=N)N)NC(=O)CN)C(=O)N[C@H](C(=O)N[C@@H](CCSC)C(=O)N[C@H](C(=O)N[C@@H](CC(=O)O)C(=O)N[C@@H](C)C(=O)N[C@@H](Cc1ccc(O)cc1)C(=O)N[C@@H](CCCCN)C(=O)N1CCC[C@H]1C(=O)N[C@H](C(=O)N[C@@H](CCCCN)C(=O)NCC(=O)O)[C@@H](C)O)C(C)C)C(C)C` [TAT-SpyTag fusion]: the “cytotoxicity of peptides alone, LDH release (membrane integrity)” value in data set [1] (2 h and 24 h incubation) is given as “no cytotoxic activity”. In addition, the “cytotoxicity of peptides alone, cell viability” value in data set [1] is recorded as “no cytotoxic activity”.
With “KKQPPKPKKPKTQEKKKKQPPKPKR (Amino acid sequence of a Sindbis virus capsid-derived CPP (SAR5)) [FPP1-SAR5]”, the “loss/reduction of activity (potency) relative to parental FPP1” value in data set [2] (setting [3]) was found to be 3 fold.
Consider “KTQEKKKKQTTKTKKTKTQEKKKKQTTKTKR (Amino acid sequence of a Sindbis virus capsid-derived CPP (1746P_T)) [FPP1-P_T]”, for which, in data set [2] (PAP assay, relative to parental FPP1), the “effect of truncation or mutation on CPP potency” value is on record as “unaffected”.
On to “PLKPKKPKTQEKKKKQPPKPKKPKTQEKKKKQPPKPK (Amino acid sequence of a Sindbis virus capsid-derived CPP (SAR12)) [FPP1-SAR12]”, for which the “loss/reduction of activity (potency) relative to parental FPP1” value in data set [2] (setting [3]) is recorded as “approximately 2.2 fold”.
For “PLRPRRPRTQERRRRQPPRPRRPRTQERRRRQPPRPRR (Amino acid sequence of a Sindbis virus capsid-derived CPP (SAR 17)) [FPP1-SAR17]”, the “loss/reduction of activity (potency) relative to parental FPP1” value in data set [2] (setting [3]) was found to be 1.5 fold.
For “SpyC only control: SpyCatcher control without CPP [reference compound]”, the “cell death caused by SpyC-PAP conjugate” value in data set [2] (compared to TAT or Penetratin-delivered SpyC_PAP, FIG. 4A) was “no effect”.
Regarding “TLKTKKTKTQEKKKKQTTKTKKTKTQEKKKKQTTKTKR (Amino acid sequence of a Sindbis virus capsid-derived CPP (SAR16 P_T)) [FPP1-SAR16]”, the “improvement of activity relative to full length FPP1” value in data set [2] (setting [3]) was 1.7 fold.
